The record followed here is ChEMBL document CHEMBL3525951, “Reevaluation of the microsomal metabolism of montelukast: major contribution by CYP2C8 at clinically relevant concentrations” (Drug Metab Dispos, 2011).

What is called Cmax is the maximum level reached in the sampled fluid or tissue. As usually defined, the Ki is a dissociation constant, usually derived from enzyme kinetics or from competition with a known ligand. As usually defined, the clearance is the volume of plasma or blood freed of the substance per unit of time.

The target in series [1] is T1, Cytochrome P450 2A6 (Homo sapiens, UniProt P11509).
T1 sequence (P11509 whole entry): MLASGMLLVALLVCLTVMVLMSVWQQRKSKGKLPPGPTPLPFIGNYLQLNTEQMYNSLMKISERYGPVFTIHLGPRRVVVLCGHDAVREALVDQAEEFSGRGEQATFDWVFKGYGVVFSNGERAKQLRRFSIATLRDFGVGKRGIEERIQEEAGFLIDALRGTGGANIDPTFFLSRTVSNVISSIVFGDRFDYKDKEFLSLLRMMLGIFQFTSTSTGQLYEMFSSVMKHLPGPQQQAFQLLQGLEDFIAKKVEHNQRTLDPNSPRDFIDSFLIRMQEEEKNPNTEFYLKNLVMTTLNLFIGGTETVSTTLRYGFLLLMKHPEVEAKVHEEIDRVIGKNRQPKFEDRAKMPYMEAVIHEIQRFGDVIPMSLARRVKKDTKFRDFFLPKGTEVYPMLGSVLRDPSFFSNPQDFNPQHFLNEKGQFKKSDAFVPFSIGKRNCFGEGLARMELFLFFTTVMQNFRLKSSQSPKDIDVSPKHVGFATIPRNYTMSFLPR
Put plainly: Activity of recombinant human CYP2A6 expressed in microsomes isolated from baculovirus infected insect cell assessed as enzyme-mediated 2-(2-((R)-3-((1-(carboxymethyl)cyclopropyl)methylthio)-3-(3-(2-(7-chloroquinolin-2-yl)vinyl)phenyl)propyl)phenyl)-2-hydroxypropanoic acid formation at 1 uM after 30 mins by LC-MS analysis. The settings on record: 0.5 h. In kind it is ADME.

The target in the next series is Cytochrome P450 2D6 (Homo sapiens, UniProt P10635). Description: Activity of recombinant human CYP2D6 expressed in microsomes isolated from baculovirus infected insect cell assessed as enzyme-mediated 2-(2-((R)-3-((1-(carboxymethyl)cyclopropyl)methylthio)-3-(3-(2-(7-chloroquinolin-2-yl)vinyl)phenyl)propyl)phenyl)-2-hydroxypropanoic acid formation at 1 uM after 30 mins by LC-MS analysis. In kind it is ADME. The settings on record: 0.5 h.
Cytochrome P450 2D6, sequence (P10635 whole entry): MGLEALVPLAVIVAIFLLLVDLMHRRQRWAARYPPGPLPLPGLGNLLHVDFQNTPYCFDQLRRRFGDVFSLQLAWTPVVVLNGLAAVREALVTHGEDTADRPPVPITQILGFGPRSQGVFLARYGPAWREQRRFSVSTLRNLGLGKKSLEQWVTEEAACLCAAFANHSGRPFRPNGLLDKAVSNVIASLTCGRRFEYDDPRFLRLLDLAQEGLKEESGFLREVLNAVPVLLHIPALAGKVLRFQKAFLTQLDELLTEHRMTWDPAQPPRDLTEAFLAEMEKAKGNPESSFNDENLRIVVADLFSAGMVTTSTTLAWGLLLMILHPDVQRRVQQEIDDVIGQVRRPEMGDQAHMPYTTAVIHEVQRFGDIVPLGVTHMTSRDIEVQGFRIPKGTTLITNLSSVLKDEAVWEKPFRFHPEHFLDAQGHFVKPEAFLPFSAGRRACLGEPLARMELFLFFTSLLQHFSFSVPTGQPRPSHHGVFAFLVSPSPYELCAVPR

Another series has as its target T2, Cytochrome P450 1A2 (Homo sapiens, UniProt P05177).
T2 sequence (P05177 whole entry): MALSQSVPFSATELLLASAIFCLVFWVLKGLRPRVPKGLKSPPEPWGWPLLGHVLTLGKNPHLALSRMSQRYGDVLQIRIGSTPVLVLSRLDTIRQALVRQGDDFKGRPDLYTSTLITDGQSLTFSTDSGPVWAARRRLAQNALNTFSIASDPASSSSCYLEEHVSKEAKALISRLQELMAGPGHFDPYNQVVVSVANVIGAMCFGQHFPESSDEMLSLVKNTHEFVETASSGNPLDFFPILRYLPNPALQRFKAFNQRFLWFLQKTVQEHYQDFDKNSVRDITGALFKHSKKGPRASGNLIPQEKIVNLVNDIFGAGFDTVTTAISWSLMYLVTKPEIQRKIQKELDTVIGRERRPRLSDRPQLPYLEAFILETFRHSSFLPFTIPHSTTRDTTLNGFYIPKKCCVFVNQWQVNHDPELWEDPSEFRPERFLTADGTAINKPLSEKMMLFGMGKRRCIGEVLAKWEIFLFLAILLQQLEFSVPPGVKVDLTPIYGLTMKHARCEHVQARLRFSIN
Put plainly: Activity of recombinant human CYP1A2 expressed in microsomes isolated from baculovirus infected insect cell assessed as enzyme-mediated 2-(2-((R)-3-((1-(carboxymethyl)cyclopropyl)methylthio)-3-(3-(2-(7-chloroquinolin-2-yl)vinyl)phenyl)propyl)phenyl)-2-hydroxypropanoic acid formation at 1 uM after 30 mins by LC-MS analysis. In kind it is ADME. To be noted: 0.5 h.

The test system of series [2] is Liver microsome. Description: Drug level in human liver microsomes treated with montelukast at 0.02 to 0.4 uM preincubated for 3 mins followed by beta-NADPH addition by LC-MS analysis. In kind it is ADME. Background: Liver microsomes are vesicles of endoplasmic reticulum, rich in cytochrome P450 enzymes.
In another series the target is Cytochrome P450 3A4 (Homo sapiens, UniProt P08684). Put plainly: Activity of recombinant human CYP3A4 expressed in microsomes isolated from baculovirus infected insect cell assessed as enzyme-mediated compound depletion at 0.02 uM after 30 mins by LC-MS analysis. To be noted: 0.5 h.
Cytochrome P450 3A4, sequence (P08684 whole entry): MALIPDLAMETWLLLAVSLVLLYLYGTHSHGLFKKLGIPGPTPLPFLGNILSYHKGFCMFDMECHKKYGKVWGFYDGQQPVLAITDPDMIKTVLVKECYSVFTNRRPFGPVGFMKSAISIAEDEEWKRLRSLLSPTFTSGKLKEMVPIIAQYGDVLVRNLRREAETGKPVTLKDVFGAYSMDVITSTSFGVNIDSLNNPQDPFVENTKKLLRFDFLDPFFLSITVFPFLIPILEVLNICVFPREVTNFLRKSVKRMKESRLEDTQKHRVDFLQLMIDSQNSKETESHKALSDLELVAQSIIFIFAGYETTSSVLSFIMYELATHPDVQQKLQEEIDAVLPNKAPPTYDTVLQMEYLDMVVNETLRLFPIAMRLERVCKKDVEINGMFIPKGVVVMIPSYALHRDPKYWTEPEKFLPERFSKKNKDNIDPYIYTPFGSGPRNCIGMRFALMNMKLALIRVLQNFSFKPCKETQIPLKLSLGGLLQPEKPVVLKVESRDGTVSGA
In the next series the target is Cytochrome P450 2C19 (Homo sapiens, UniProt P33261). Description: Activity of recombinant human CYP2C19 expressed in microsomes isolated from baculovirus infected insect cell assessed as enzyme-mediated (R)-2-(1-((1-(3-(2-(7-chloroquinolin-2-yl)vinyl)phenyl)-3-(4-hydroxy-2-(2-hydroxypropan-2-yl)phenyl)propylthio)methyl)cyclopropyl)acetic acid formation at 1 uM after 60 mins by LC-MS analysis. In kind it is ADME. The settings on record: 1 h.
Cytochrome P450 2C19, sequence (P33261 whole entry): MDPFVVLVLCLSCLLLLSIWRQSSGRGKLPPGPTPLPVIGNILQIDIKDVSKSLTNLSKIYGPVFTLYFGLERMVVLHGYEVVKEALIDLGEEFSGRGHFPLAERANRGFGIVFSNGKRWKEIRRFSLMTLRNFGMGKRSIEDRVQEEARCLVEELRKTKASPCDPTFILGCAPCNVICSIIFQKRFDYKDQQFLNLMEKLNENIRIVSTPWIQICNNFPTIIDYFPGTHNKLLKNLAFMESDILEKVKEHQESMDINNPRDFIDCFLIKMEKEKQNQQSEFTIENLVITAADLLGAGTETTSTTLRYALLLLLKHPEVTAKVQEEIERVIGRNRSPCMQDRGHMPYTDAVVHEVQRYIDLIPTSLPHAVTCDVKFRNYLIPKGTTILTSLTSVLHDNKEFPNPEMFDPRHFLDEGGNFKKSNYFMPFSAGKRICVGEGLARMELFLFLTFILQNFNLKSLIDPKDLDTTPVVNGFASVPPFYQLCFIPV

The subject of series [3] is Liver microsome. Put plainly: Drug metabolism in human liver microsomes assessed as (R)-2-(1-((1-(3-(2-(7-chloroquinolin-2-yl)vinyl)phenyl)-3-(4-hydroxy-2-(2-hydroxypropan-2-yl)phenyl)propylthio)methyl)cyclopropyl)acetic acid formation at 0.4 uM after 15 mins by LC-MS analysis in presence of CYP1A2 inhibitor furafylline, CYP2B6 inhibitor clopidogrel, CYP2D6 inhibitor quinidine and CYP2C9 inhibitor sulfaphenazole. In kind it is ADME. The settings on record: 0.25 h.

Series [4] concerns the target T1, Cytochrome P450 2A6. Put plainly: Activity of recombinant human CYP2A6 expressed in microsomes isolated from baculovirus infected insect cell assessed as enzyme-mediated compound depletion at 0.02 uM after 30 mins by LC-MS analysis. In kind it is ADME. The settings on record: 0.5 h.
Series [5] has as its system Plasma. Description: Unbound plasma concentration in human at 10 mg, po. The class given is ADME, cell-free.
For series [6], the system named is Liver microsome. Put plainly: Drug metabolism in human liver microsomes assessed as 2-(1-(((1R)-1-(3-(2-(7-chloroquinolin-2-yl)vinyl)phenyl)-3-(2-(1,2-dihydroxypropan-2-yl)phenyl)propylthio)methyl)cyclopropyl)acetic acid formation at 0.4 uM after 15 mins by LC-MS analysis in presence of CYP1A2 inhibitor furafylline, CYP2B6 inhibitor clopidogrel, CYP2D6 inhibitor quinidine and CYP2C9 inhibitor sulfaphenazole. The class given is ADME. To be noted: 0.25 h.

Series [7] in a line: Cmax in human at 10 mg, po. The class given is ADME, organism-based. To be noted: in vivo. The arrangement: dose 10 mg, route oral.
A further series has as its target Cytochrome P450 2C9 (Homo sapiens, UniProt P11712). Description: Inhibition of recombinant human CYP2C9 expressed in microsomes isolated from baculovirus infected insect cell after 10 mins.
Series [8] deals with Liver microsome. Description: Drug metabolism in human liver microsomes assessed as 2-(1-(((S)-1-(3-(2-(7-chloroquinolin-2-yl)vinyl)phenyl)-3-(2-(2-hydroxypropan-2-yl)phenyl)propylsulfinyl)methyl)cyclopropyl)acetic acid formation at 0.02 to 0.4 uM preincubated for 3 mins followed by beta-NADPH addition by LC-MS analysis. In kind it is ADME.
The test system of series [9] is Plasma. Put plainly: Fraction unbound in human plasma. In kind it is ADME, cell-free.
In series [10] the test system is Liver microsome. Description: Drug metabolism in human liver microsomes assessed as 2-(1-(((1R)-1-(3-(2-(7-chloroquinolin-2-yl)vinyl)phenyl)-3-(2-(1,2-dihydroxypropan-2-yl)phenyl)propylthio)methyl)cyclopropyl)acetic acid formation at 0.05 uM after 15 mins by LC-MS analysis in presence of CYP2C8 inhibitor gemfibrozil 1-O-beta glucuronide and CYP2C9 inhibitor sulfaphenazole. In kind it is ADME. To be noted: 0.25 h.

Series [11] can be described thus: Plasma clearance in human at 3 to 18 mg, iv. The class given is ADME, organism-based.
Series [12] deals with Liver microsome. Put plainly: Drug metabolism in human liver microsomes assessed as 2-(1-(((1R)-1-(3-(2-(7-chloroquinolin-2-yl)vinyl)phenyl)-3-hydroxy-3-(2-(2-hydroxypropan-2-yl)phenyl)propylthio)methyl)cyclopropyl)acetic acid formation at 0.02 to 0.4 uM preincubated for 3 mins followed by beta-NADPH addition by LC-MS analysis. In kind it is ADME.

Cytochrome P450 2C9, sequence (P11712 whole entry): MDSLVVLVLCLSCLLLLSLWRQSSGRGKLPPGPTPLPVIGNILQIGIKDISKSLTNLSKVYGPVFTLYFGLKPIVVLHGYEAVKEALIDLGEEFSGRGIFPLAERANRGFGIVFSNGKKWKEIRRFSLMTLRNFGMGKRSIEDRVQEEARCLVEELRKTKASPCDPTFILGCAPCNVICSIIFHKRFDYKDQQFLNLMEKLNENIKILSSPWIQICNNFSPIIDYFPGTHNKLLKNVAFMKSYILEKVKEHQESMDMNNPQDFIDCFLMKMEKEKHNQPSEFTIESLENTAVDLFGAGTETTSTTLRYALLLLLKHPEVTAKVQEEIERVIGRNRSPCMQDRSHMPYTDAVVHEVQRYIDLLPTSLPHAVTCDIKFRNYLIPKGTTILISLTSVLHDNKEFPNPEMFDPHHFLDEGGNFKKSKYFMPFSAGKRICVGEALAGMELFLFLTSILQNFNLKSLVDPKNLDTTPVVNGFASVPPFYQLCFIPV

With `CC(O)(CO)c1ccccc1CC[C@@H](SCC1(CC(=O)O)CC1)c1cccc(/C=C/c2ccc3ccc(Cl)cc3n2)c1` (some centres not stated), the Drug metabolism result was “metabolite_not_detected” at Cytochrome P450 2A6 [1], “metabolite_not_detected” on Cytochrome P450 2D6, “metabolite_not_detected” at Cytochrome P450 1A2 and “metabolite_detected” in the series with Liver microsome [2].

As for `CC(C)(O)c1ccccc1CC[C@@H](SCC1(CC(=O)[O-])CC1)c1cccc(/C=C/c2ccc3ccc(Cl)cc3n2)c1.[Na+]` [MONTELUKAST SODIUM], the Drug metabolism entry on Cytochrome P450 3A4, at Cytochrome P450 2C19, with Liver microsome [3], at Cytochrome P450 2A6 [4], in the series with Liver microsome [6] and in the series on Liver microsome [8] was “metabolite_detected” each time. Besides, the Drug metabolism entry with Liver microsome [10] is reported as “metabolite_not_detected”; with Liver microsome [12], “metabolite_detected”. In addition, in the series with Plasma [5], the “Cp(f)” value came to 3 nM. The compound also yielded a Cmax in series [7] of 500 ng/mL. Also, the Ki on Cytochrome P450 2C9 was 7.4 µM. In the series with Plasma [9], this compound came in with a Fu of 0.4%. Besides, in [11], the clearance came to 0.578 mL/min/kg.
